Measurements published in US6716968B2, “Apoptosis-related compounds and their use” (Peviva AB, priority 1997, dated 2004).
Ends that are not written are not given here.

Tested on: monoclonal antibody M30
Test: ELISA reactivity of synthetic peptides with monoclonal antibody M30
Type: binding, mouse
Conditions: SEQ ID NO: 1 set at 100
Excerpt: These peptides having the amino acid sequences SEQ ID NO: 2 and 3 have been synthesized, and in an ELISA they bind to the mAb M 30 [relative activity: 100 for SEQ ID NO: 1; 11 for SEQ ID NO: 2; and 8.3 for SEQ ID NO: 3, respectively]. However, these two peptides are not expected to represent cleaved fragments of CK18 specific for apoptosis, since the mAb M 30 cannot bind to CK18 fragments until they expose the neo-epitope having the C-terminal sequence Ala Leu Asp.
The oligopeptides made in order to illustrate the invention were synthesized using the multipin peptide synthesis approach using polyethylene supports derivatized with an acid handle (Cf. Valerio, R. M., Bray, A. M. and Maeji, N. J. (1994) Multiple peptide synthesis on acid-labile handle derivatized polyethylene supports. Int. J. Peptide Protein Res. 44:158-165.). The synthesis was carried out on detachable pins grafted with hydroxyethylmethacrylate and functionalized with the trifluoroacetic acid-labile Rink amide forming handle. Peptides representing both the N and C terminal truncation series of the sequence EDFNLGDALD (SEQ ID NO:1) and other sequences were synthesized. Peptides were capped with biotin using the tetra peptide linker sequence—SGSG- or —SGSB- (B=βalanine), and attached to streptavidin coated plates in the enzyme-linked immunosorbent assay.
In order to characterize the MAb M30-epitope chemically, the M30was tested against a large number of synthetic peptides, that were especially made for this purpose.

relative activity (binding to mAb M 30 in ELISA) | Substance
100 | EDFNLGDALD [SEQ ID NO: 1]
8.3 | LEDGEDFNLGDALDSSNS [SEQ ID NO: 3]
11 | EDGEDFNLGDALDSSNSMQT [SEQ ID NO: 2]

Same assay, conditions: biotin-capped peptide attached to streptavidin coated plates, ELISA with MAb M30

Substance | Absorbance at 405/492 nm
LEDGEDFNLGDAL (OTHER INFORMATION: Description of Artificial Sequence: epitope from mammalian protein) [Peptide 63] | 0.05
LEDGEDFNLGDALDS (OTHER INFORMATION: Description of Artificial Sequence: epitope from mammalian protein) [Peptide 61] | 0.1
GDALD (OTHER INFORMATION: Description of Artificial Sequence: epitope from mammalian protein) [Peptide 405] | 0.1
GEDFNLGDALD [302] (OTHER INFORMATION: Description of Artificial Sequence: epitope from mammalian protein) [Peptide 302] | 1.41
LGDALD (OTHER INFORMATION: Description of Artificial Sequence: epitope from mammalian protein) [Peptide 404] | 0.1
GEDFNLGDALD [47] (OTHER INFORMATION: Description of Artificial Sequence: epitope from mammalian protein) [Peptide 47] | 1.23
DALD (OTHER INFORMATION: Description of Artificial Sequence: epitope from mammalian protein) [Peptide 406] | 0.1
EDGEDFNLGDALD (OTHER INFORMATION: Description of Artificial Sequence: epitope from mammalian protein) [Peptide 45] | 1.05
DGEDFNLGDALD (OTHER INFORMATION: Description of Artificial Sequence: epitope from mammalian protein) [Peptide 46] | 0.77
FNLGDALD (OTHER INFORMATION: Description of Artificial Sequence: epitope from mammalian protein) [Peptide 402] | 0.27
EDFNLGDALD (OTHER INFORMATION: Description of Artificial Sequence: epitope from mammalian protein) [Peptide 301] | 1.46
DFNLGDALD (OTHER INFORMATION: Description of Artificial Sequence: epitope from mammalian protein) [Peptide 401] | 0.62
NLGDALD (OTHER INFORMATION: Description of Artificial Sequence: epitope from mammalian protein) [Peptide 403] | 0.14

Same assay, conditions: truncation series of Table 1

Substance | activity (reactivity with MAb M30) in words
EDFNLGDALD [SEQ ID NO: 1] | maximal activity
